Data published in patent US10118922B2 (Janssen Pharmaceutica NV, priority 2013, dated 2018).

Assays:
[1] = target: T1, short form of the GPR120 receptor (Homo sapiens, UniProt Q5NUL3); test: Human GPR120 DiscoveRx PathHunter beta-arrestin assay, Procedure β-arrestin B; assay type: cell-based; conditions: PathHunter CHO-K1 GPR120S β-Arrestin cells, 5000 cells/well; read-out: hGPR120 β-arrestin B EC50
T1 construct: host or cells: PathHunter CHO-K1 GPR120S β-Arrestin Cell Line
T1 sequence (Q5NUL3 1-361): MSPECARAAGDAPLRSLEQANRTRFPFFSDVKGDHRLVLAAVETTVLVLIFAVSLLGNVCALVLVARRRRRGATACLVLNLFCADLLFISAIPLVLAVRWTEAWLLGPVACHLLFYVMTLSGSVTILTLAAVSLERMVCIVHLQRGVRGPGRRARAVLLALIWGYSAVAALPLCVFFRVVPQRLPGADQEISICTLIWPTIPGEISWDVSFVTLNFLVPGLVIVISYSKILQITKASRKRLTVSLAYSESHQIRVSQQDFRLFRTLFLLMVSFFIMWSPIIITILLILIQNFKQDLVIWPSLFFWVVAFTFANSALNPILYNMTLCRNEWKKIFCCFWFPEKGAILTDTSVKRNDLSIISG
From the text: The binding of an agonist (medium/long chain fatty acids or small molecule agonists) to the G-protein-coupled receptor GPR120 activates phospholipase C, leading to release of intracellular Ca^+2 through the generation of inositol 1,4,5-trisphosphate (InsP3 or IP3). GPR120 activation can also trigger intracellular signaling via recruitment of Beta-Arrestin. In the present method, agonist-induced activation of the human GPR120 receptor is monitored through the use of PathHunter CHO-K1 GPR120 Beta-Arrestin Cell Line engineered by DiscoveRx, as detailed below. The cell lines are designed to co-express both the ProLink/Enzyme Donor (PK)-tagged GPCR and the Enzyme […] (EA)-tagged Beta-Arrestin fusion proteins. Upon GPR120 receptor stimulation/activation, the EA-tagged Beta-Arrestin portion is translocated to the tagged receptor, where the two enzyme fragments are brought within close proximity. Under these conditions, these fragments can interact and form an active Beta-gal enzyme complex through Enzyme Fragment Complementation (EFC). This active Beta-gal complex can enzymatically hydrolyse the substrate to produce a detectable light signal; therefore, activation as a function of agonist concentration can be expressed as an EC50 value to determine relative compound activities. This in vitro assay therefore serves to assess compound agonist activity of the GPR120.
In Procedure β-arrestin B the cells used were PathHunter CHO-K1 GPR120S β-Arrestin Cell Line, expressing the short form of the GPR120 receptor (Accession #NM 181745), with 5000 cells/well.
The selected CHO-K1 GPR120 β-Arrestin cells were cultured in Ham's F12 media supplemented with 10% fetal bovine serum (FBS), 1% Glutamine, 1×p/s, 800 μg/mL G418 and 300 μg/mL Hygromycin B (for selection). Cell stocks were maintained and grown in a sub-confluent state using standard cell culture procedures. The day before the experiment, the cells were harvested with non-enzymatic cell dissociation buffer and re-suspended in complete growth media at the desired concentration. A Corning 384-plate was then seeded with the proper number of cells in a volume of 25 μL, per well. The seeded plates were incubated overnight at 37° C.
On the day of the experiment, the Assay Buffer containing (a) HBSS with Ca^++ and Mg^++, (b) 20 mM HEPES, and (c) 0.1% BSA stabilizer (pH 7.4) was prepared. The growth medium was gently removed from the cell plates and 20 μL of Assay Buffer added to each well. The plate was then incubated at 37° C. for 60 min. Test compounds were serially diluted in Assay Buffer to desired concentrations (more particularly to one or more of the following μM concentrations: 25, 12.5, 6.25, 3.125, 1.5625, 0.78125, 0.390625, 0.1953125, 0.09765625, 0.048828125, 0.024414063, 0.012207031). Five μL of compound dilution was then added to each well and the plate incubated at 37° C. for 90 min. The detection reagents were prepared according to the manufacture's instruction. Twelve μL of the detection reagents were added to each well and the plate incubated at room temperature for 60 min.
The plates were read on an EnVision instrument, using Protocol name: Luminescence, Plate type: 384 Costar, Measurement height: 3 mm, Measurement time: 1 s, Aperture: 384 Plate aperture. The % activity relative to the positive control was calculated using the following equation:
The % Activity values were plotted versus the concentration of test compound and fitted to a sigmoidal dose-response curve with a Hill slope=1 (fixed value) using nonlinear regression with GraphPad Prism 5.0 to calculate the EC50 values. The Fitting Equation was: Y=Bottom+(Top-Bottom)/(1+10^((Log EC50−X)*HillSlope)), where X is the log of the concentration and Y is the response.

[2] = target: T2, Human GPR120 short form (Homo sapiens, UniProt Q5NUL3); test: Human GPR120 calcium flux assay, Procedure Calcium A; assay type: cell-based; conditions: HEK-293 cells, FLIPR, 2500 cells/well; read-out: GPR120 Ca2+ Assay A EC50
T2 construct: expressed in transfected cells
T2 sequence (Q5NUL3 1-361): T1 sequence (Q5NUL3 1-361)
Procedure: These cells are first loaded with the Ca^+2 sensitive dye, Fluo-4 NR. Upon stimulation, intracellular released Ca^+2 can bind to the dye and alter its fluorescence intensity. This increase in fluorescence signal, and thus the flux in intracellular [Ca^2+], is detected and quantitated by fluorescence imaging using a FLIPR reader. The effect of the agonist is measured as a function of concentration and used to calculate an EC50 based upon a response curve.
In this procedure 2500 cells/well were employed.
A Human GPR120 clone (Genbank accession number NM_001195755.1) was placed into the pcDNA3.1 mammalian expression vector carrying the neomycin resistance gene. A stable mammalian cell was generated by placing the above clone into a HEK293 background. […] Cells were split 2 times a week to keep the cells in the log-phase growth.
In preparation for the assay, HEK cells stably transfected with Human GPR120 (2.5K cells per well in 25 uL growth medium) were seeded into 384-well plates and then incubated overnight (37° C., 5% CO2). The next day, the media was changed to 20 μL assay buffer and the cell starved for 1 h at 37° C. The dye loading solution (2× dye) was prepared using 10 mL assay buffer, 100 μL of 250 mM probenecid, 1 bottle of Component A, and 20 μl of dye in DMSO. Twenty μL of the 2× dye loading buffer was then added to each well. The plates were incubated at 37° C. for 30 min, then at room temperature for an additional 15 minutes, before performing the assay on FLIPR.
The assay was performed on a FLIPR plate reader using the following parameters. Baseline was read for 10 seconds at 1 sec intervals. The program was set to transfer 10 μL of ligand from compound plate to cell plate after baseline reading. Aspiration was executed at: 10 μL/sec speed, 4.6 μL height; Dispensing was executed at: 30 μL/sec speed, 45 μL height. After compound addition, each well was read for 300 sec, with measurements collected at 1 sec intervals.
The kinetic data from the FLIPR was based upon a 5 minute window for data collection. The fluorescence of each sample well was used for individual calculations of a normalized RFU value, which was defined as maximum response minus the minimum response. […] The Fitting Equation was: Y=Bottom+(Top-Bottom)/(1+10^((Log EC50−X)*HillSlope)), where X is the log of the concentration and Y is the response.

EC50 [1]	EC50 [2]	Compound
68 nM	30 nM	O=C(O)CCc1cc(F)c(OCc2sc(Cl)cc2-c2ccc(Cl)cc2)c(F)c1 [Cpd 2, 3-(4-{[5-Chloro-3-(4-chlorophenyl)thiophen-2-yl]methoxy}-3,5-difluorophenyl)propanoic acid]
322 nM	50 nM	Cc1sc(-c2ccccc2)c(COc2ccc(CCC(=O)O)c(C)c2C)c1C(F)(F)F [Cpd 33, 3-(2,3-Dimethyl-4-{[5-methyl-2-phenyl-4-(trifluoromethyl)thiophen-3-yl]methoxy}phenyl)propanoic acid]
31 nM	50 nM	OCCCc1cc(F)c(OCc2c(Cl)nsc2-c2ccc(Cl)cc2)c(F)c1 [Cpd 78, 3-(4-{[3-Chloro-5-(4-chlorophenyl)isothiazol-4-yl]methoxy}-3,5-difluorophenyl)propan-1-ol]
